Data on seven compounds can be found in ChEMBL document CHEMBL1144078, “Activity-guided isolation of triterpenoid acyl CoA cholesteryl acyl transferase (ACAT) inhibitors from Ilex kudincha” (J Nat Prod, 1999).

The target of the test is T1, Sterol O-acyltransferase 1 (Rattus norvegicus, UniProt O70536).
T1 sequence (O70536 whole entry): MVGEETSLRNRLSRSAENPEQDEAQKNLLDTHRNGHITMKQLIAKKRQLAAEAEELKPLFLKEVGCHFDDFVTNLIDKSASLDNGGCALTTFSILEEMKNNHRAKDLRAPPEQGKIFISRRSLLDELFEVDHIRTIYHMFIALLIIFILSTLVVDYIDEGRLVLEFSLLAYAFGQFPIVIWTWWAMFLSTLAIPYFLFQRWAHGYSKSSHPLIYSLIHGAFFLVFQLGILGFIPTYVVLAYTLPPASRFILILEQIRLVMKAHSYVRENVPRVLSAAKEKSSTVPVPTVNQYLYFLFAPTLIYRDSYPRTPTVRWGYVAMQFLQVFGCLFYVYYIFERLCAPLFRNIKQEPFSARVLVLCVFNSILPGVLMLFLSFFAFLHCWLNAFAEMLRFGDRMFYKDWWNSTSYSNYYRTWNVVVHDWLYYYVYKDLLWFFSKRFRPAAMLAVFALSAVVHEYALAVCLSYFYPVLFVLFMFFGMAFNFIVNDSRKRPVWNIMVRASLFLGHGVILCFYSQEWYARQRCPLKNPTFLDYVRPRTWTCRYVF
Kind of test: Inhibition of rat liver microsomal ACAT.

For `C[C@H]1[C@H](C)CC[C@]2(C(=O)O)CC[C@]3(COC(=O)/C=C/c4ccc(O)cc4)C(=CC[C@@H]4[C@@]5(C)CC[C@H](O)C(C)(C)[C@@H]5CC[C@]43C)[C@H]12`, the IC50 was found to be 73 µM.

Consider `C[C@H]1[C@H](C)CC[C@]2(C(=O)O)CC[C@]3(COC(=O)/C=C\c4ccc(O)cc4)C(=CC[C@@H]4[C@@]5(C)CC[C@H](O)[C@@](C)(CO)[C@@H]5CC[C@]43C)[C@H]12`, for which the IC50 is 194 µM.

`C[C@H]1[C@H](C)CC[C@]2(C(=O)O)CC[C@]3(C)C(=CC[C@@H]4[C@@]5(C)CC[C@H](O)[C@@](C)(CO)[C@@H]5CC[C@]43C)[C@H]12`: the IC50 worked out at 64 µM.

On to `C=C1[C@@H](O)[C@H](O)C[C@]2(C)[C@H]3C=C[C@]45OC(=O)[C@@]6(CC[C@@H](C)[C@H](C)[C@H]64)CC[C@@]5(C)[C@]3(C)CC[C@@H]12` [ILEKUDINOL A], for which the IC50 was found to be 154 µM.

For `C=C1[C@@H](O)[C@H](O)C[C@]2(C)[C@H]3CC=C4[C@@H]5[C@@H](C)[C@H](C)CC[C@]5(C(=O)O)CC[C@@]4(C)[C@]3(C)CC[C@@H]12` [ILEKUDINOL B], the IC50 stood at 44 µM.

Regarding `C=C(C)[C@@H]1CC[C@]2(CO)CC[C@]3(C)[C@H](CC[C@@H]4[C@@]5(C)CC[C@H](O)[C@](C)(CO)[C@@H]5CC[C@]43C)[C@@H]12` [ILEKUDINOL C], the IC50 amounted to 328 µM.

`C=C1[C@@H](O)[C@H](O)C[C@]2(C)[C@H]3[C@@H]4O[C@@H]4[C@]45OC(=O)[C@@]6(CC[C@@H](C)[C@H](C)[C@H]64)CC[C@@]5(C)[C@]3(C)CC[C@@H]12` [ULMOIDOL] gave an IC50 of 468 µM.
